According to ChEMBL document CHEMBL1131152, “In vitro and in vivo activities of oligodeoxynucleotide-based thrombin inhibitors containing neutral formacetal linkages” (J Med Chem, 1998):

biological target: Prothrombin (Homo sapiens) (UniProt P00734); experiment: Relative prothrombin time was determined as the activity of the test ODN (oligodeoxynucleotide) relative to that of GS-522

Row | SMILES | Relative PT
1 | Cc1cn([C@H]2C[C@H](OCOC[C@H]3O[C@@H](n4cc(C)c(=O)[nH]c4=O)C[C@@H]3OP(=O)(O)OC[C@H]3O[C@@H](n4cnc5c(=O)nc(N)[nH]c54)C[C@@H]3OP(=O)(O)OC[C@H]3O[C@@H](n4cnc5c(=O)[nH]c(=N)[nH]c54)C[C@@H]3OP(=O)(O)OC[C@H]3O[C@@H](n4cc(C)c(=O)[nH]c4=O)C[C@@H]3OCOC[C@H]3O[C@@H](n4cnc5c(=O)[nH]c(=N)[nH]c54)C[C@@H]3OP(=O)(O)OC[C@H]3O[C@@H](n4cc(C)c(=O)[nH]c4=O)C[C@@H]3OP(=O)(O)OC[C@H]3O[C@@H](n4cnc5c(=O)nc(N)[nH]c54)C[C@@H]3OP(=O)(O)OC[C@H]3O[C@@H](n4cnc5c(=O)[nH]c(=N)[nH]c54)C[C@@H]3OP(=O)(O)OC[C@H]3O[C@@H](n4cc(C)c(=O)[nH]c4=O)C[C@@H]3OCOC[C@H]3O[C@@H](n4cc(C)c(=O)[nH]c4=O)C[C@@H]3OP(=O)(O)OC[C@H]3O[C@@H](n4cnc5c(=O)[nH]c(=N)[nH]c54)C[C@@H]3OP(=O)(O)OC[C@H]3O[C@@H](n4cnc5c(=O)nc(N)[nH]c54)C[C@@H]3O)[C@@H](COP(=O)(O)O[C@H]3C[C@H](n4cnc5c(=O)nc(N)[nH]c54)O[C@@H]3COP(=O)(O)O[C@H]3C[C@H](n4cnc5c(=O)[nH]c(=N)[nH]c54)O[C@@H]3COP(=O)(O)O)O2)c(=O)[nH]c1=O | 0.9
2 | Cc1cn([C@H]2C[C@H](OCOC[C@H]3O[C@@H](n4cc(C)c(=O)[nH]c4=O)C[C@@H]3OP(=O)(O)OC[C@H]3O[C@@H](n4cnc5c(=O)nc(N)[nH]c54)C[C@@H]3OP(=O)(O)OC[C@H]3O[C@@H](n4cnc5c(=O)[nH]c(=N)[nH]c54)C[C@@H]3OP(=O)(O)OC[C@H]3O[C@@H](n4cc(C)c(=O)[nH]c4=O)C[C@@H]3OP(=O)(O)OC[C@H]3O[C@@H](n4cnc5c(=O)[nH]c(=N)[nH]c54)C[C@@H]3OP(=O)(O)OC[C@H]3O[C@@H](n4cc(C)c(=O)[nH]c4=O)C[C@@H]3OP(=O)(O)OC[C@H]3O[C@@H](n4cnc5c(=O)nc(N)[nH]c54)C[C@@H]3OP(=O)(O)OC[C@H]3O[C@@H](n4cnc5c(=O)[nH]c(=N)[nH]c54)C[C@@H]3OP(=O)(O)OC[C@H]3O[C@@H](n4cc(C)c(=O)[nH]c4=O)C[C@@H]3OCOC[C@H]3O[C@@H](n4cc(C)c(=O)[nH]c4=O)C[C@@H]3OP(=O)(O)OC[C@H]3O[C@@H](n4cnc5c(=O)[nH]c(=N)[nH]c54)C[C@@H]3OP(=O)(O)OC[C@H]3O[C@@H](n4cnc5c(=O)nc(N)[nH]c54)C[C@@H]3O)[C@@H](COP(=O)(O)O[C@H]3C[C@H](n4cnc5c(=O)[nH]c(=N)[nH]c54)O[C@@H]3COP(=O)(O)O[C@H]3C[C@H](n4cnc5c(=O)nc(N)[nH]c54)O[C@@H]3COP(=O)(O)O)O2)c(=O)[nH]c1=O | 1.1
3 | Cc1cn([C@H]2C[C@H](OP(=O)(O)OC[C@H]3O[C@@H](n4cnc5c(=O)nc(N)[nH]c54)C[C@@H]3OP(=O)(O)OC[C@H]3O[C@@H](n4cnc5c(=O)[nH]c(=N)[nH]c54)C[C@@H]3OP(=O)(O)OC[C@H]3O[C@@H](n4cc(C)c(=O)[nH]c4=O)C[C@@H]3OP(=O)(O)OC[C@H]3O[C@@H](n4cnc5c(=O)nc(N)[nH]c54)C[C@@H]3OP(=O)(O)OC[C@H]3O[C@@H](n4cc(C)c(=O)[nH]c4=O)C[C@@H]3OP(=O)(O)OC[C@H]3O[C@@H](n4cnc5c(=O)nc(N)[nH]c54)C[C@@H]3OCOC[C@H]3O[C@@H](n4cnc5c(=O)[nH]c(=N)[nH]c54)C[C@@H]3OP(=O)(O)OC[C@H]3O[C@@H](n4cc(C)c(=O)[nH]c4=O)C[C@@H]3OP(=O)(O)OC[C@H]3O[C@@H](n4cc(C)c(=O)[nH]c4=O)C[C@@H]3OP(=O)(O)OC[C@H]3O[C@@H](n4cnc5c(=O)[nH]c(=N)[nH]c54)C[C@@H]3OP(=O)(O)OC[C@H]3O[C@@H](n4cnc5c(=O)nc(N)[nH]c54)C[C@@H]3O)[C@@H](COP(=O)(O)O[C@H]3C[C@H](n4cc(C)c(=O)[nH]c4=O)O[C@@H]3COP(=O)(O)O[C@H]3C[C@H](n4cnc5c(=O)[nH]c(=N)[nH]c54)O[C@@H]3COP(=O)(O)O[C@H]3C[C@H](n4cnc5c(=O)nc(N)[nH]c54)O[C@@H]3COP(=O)(O)O)O2)c(=O)[nH]c1=O | 0.8
4 | Cc1cn([C@H]2C[C@H](OP(=O)(O)OC[C@H]3O[C@@H](n4cc(C)c(=O)[nH]c4=O)C[C@@H]3OP(=O)(O)OC[C@H]3O[C@@H](n4cnc5c(=O)[nH]c(=N)[nH]c54)C[C@@H]3OP(=O)(O)OC[C@H]3O[C@@H](n4cnc5c(=O)nc(N)[nH]c54)C[C@@H]3O)[C@@H](COCO[C@H]3C[C@H](n4cnc5c(=O)[nH]c(=N)[nH]c54)O[C@@H]3COP(=O)(O)O[C@H]3C[C@H](n4cnc5c(=O)nc(N)[nH]c54)O[C@@H]3COP(=O)(O)O[C@H]3C[C@H](n4cc(C)c(=O)[nH]c4=O)O[C@@H]3COP(=O)(O)O[C@H]3C[C@H](n4cnc5c(=O)nc(N)[nH]c54)O[C@@H]3COP(=O)(O)O[C@H]3C[C@H](n4cc(C)c(=O)[nH]c4=O)O[C@@H]3COP(=O)(O)O[C@H]3C[C@H](n4cnc5c(=O)[nH]c(=N)[nH]c54)O[C@@H]3COP(=O)(O)O[C@H]3C[C@H](n4cnc5c(=O)nc(N)[nH]c54)O[C@@H]3COP(=O)(O)O[C@H]3C[C@H](n4cc(C)c(=O)[nH]c4=O)O[C@@H]3COP(=O)(O)O[C@H]3C[C@H](n4cc(C)c(=O)[nH]c4=O)O[C@@H]3COP(=O)(O)O[C@H]3C[C@H](n4cnc5c(=O)[nH]c(=N)[nH]c54)O[C@@H]3COP(=O)(O)O[C@H]3C[C@H](n4cnc5c(=O)nc(N)[nH]c54)O[C@@H]3COP(=O)(O)O)O2)c(=O)[nH]c1=O | 0.8
5 | Cc1cn([C@H]2C[C@H](OCOC[C@H]3O[C@@H](n4cnc5c(=O)nc(N)[nH]c54)C[C@@H]3OP(=O)(O)OC[C@H]3O[C@@H](n4cnc5c(=O)[nH]c(=N)[nH]c54)C[C@@H]3OP(=O)(O)OC[C@H]3O[C@@H](n4cc(C)c(=O)[nH]c4=O)C[C@@H]3OP(=O)(O)OC[C@H]3O[C@@H](n4cc(C)c(=O)[nH]c4=O)C[C@@H]3O[PH](O)(O)OC[C@H]3O[C@@H](n4cnc5c(=O)[nH]c(=N)[nH]c54)C[C@@H]3OP(=O)(O)OC[C@H]3O[C@@H](n4cnc5c(=O)nc(N)[nH]c54)C[C@@H]3O)[C@@H](COP(=O)(O)O[C@H]3C[C@H](n4cnc5c(=O)[nH]c(=N)[nH]c54)O[C@@H]3COCO[C@H]3C[C@H](n4cc(C)c(=O)[nH]c4=O)O[C@@H]3COP(=O)(O)O[C@H]3C[C@H](n4cnc5c(=O)[nH]c(=N)[nH]c54)O[C@@H]3COP(=O)(O)O[C@H]3C[C@H](n4cnc5c(=O)nc(N)[nH]c54)O[C@@H]3COP(=O)(O)O[C@H]3C[C@H](n4cc(C)c(=O)[nH]c4=O)O[C@@H]3COP(=O)(O)O[C@H]3C[C@H](n4cc(C)c(=O)[nH]c4=O)O[C@@H]3COP(=O)(O)O[C@H]3C[C@H](n4cnc5c(=O)nc(N)[nH]c54)O[C@@H]3COP(=O)(O)O[C@H]3C[C@H](n4cnc5c(=O)nc(N)[nH]c54)O[C@@H]3COP(=O)(O)O)O2)c(=O)[nH]c1=O | 0.7
6 | Cc1cn([C@H]2C[C@H](OCOC[C@H]3O[C@@H](n4cnc5c(=O)[nH]c(=N)[nH]c54)C[C@@H]3OP(=O)(O)OC[C@H]3O[C@@H](n4cnc5c(=O)nc(N)[nH]c54)C[C@@H]3O)[C@@H](COP(=O)(O)O[C@H]3C[C@H](n4cc(C)c(=O)[nH]c4=O)O[C@@H]3COP(=O)(O)O[C@H]3C[C@H](n4cnc5c(=O)[nH]c(=N)[nH]c54)O[C@@H]3COP(=O)(O)O[C@H]3C[C@H](n4cnc5c(=O)nc(N)[nH]c54)O[C@@H]3COP(=O)(O)O[C@H]3C[C@H](n4cc(C)c(=O)[nH]c4=O)O[C@@H]3COP(=O)(O)O[C@H]3C[C@H](n4cnc5c(=O)nc(N)[nH]c54)O[C@@H]3COP(=O)(O)O[C@H]3C[C@H](n4cc(C)c(=O)[nH]c4=O)O[C@@H]3COP(=O)(O)O[C@H]3C[C@H](n4cnc5c(=O)[nH]c(=N)[nH]c54)O[C@@H]3COP(=O)(O)O[C@H]3C[C@H](n4cnc5c(=O)nc(N)[nH]c54)O[C@@H]3COP(=O)(O)O[C@H]3C[C@H](n4cc(C)c(=O)[nH]c4=O)O[C@@H]3COCO[C@H]3C[C@H](n4cc(C)c(=O)[nH]c4=O)O[C@@H]3COP(=O)(O)O[C@H]3C[C@H](n4cnc5c(=O)nc(N)[nH]c54)O[C@@H]3COP(=O)(O)O[C@H]3C[C@H](n4cnc5c(=O)nc(N)[nH]c54)O[C@@H]3COP(=O)(O)O)O2)c(=O)[nH]c1=O | 0.6
7 | Cc1cn([C@H]2C[C@H](OCOC[C@H]3O[C@@H](n4cc(C)c(=O)[nH]c4=O)C[C@@H]3OP(=O)(O)OC[C@H]3O[C@@H](n4cnc5c(=O)[nH]c(=N)[nH]c54)C[C@@H]3OP(=O)(O)OC[C@H]3O[C@@H](n4cnc5c(=O)nc(N)[nH]c54)C[C@@H]3O)[C@@H](COP(=O)(O)O[C@H]3C[C@H](n4cnc5c(=O)[nH]c(=N)[nH]c54)O[C@@H]3COP(=O)(O)O[C@H]3C[C@H](n4cnc5c(=O)nc(N)[nH]c54)O[C@@H]3COP(=O)(O)O[C@H]3C[C@H](n4cc(C)c(=O)[nH]c4=O)O[C@@H]3COP(=O)(O)O[C@H]3C[C@H](n4cnc5c(=O)[nH]c(=N)[nH]c54)O[C@@H]3COP(=O)(O)O[C@H]3C[C@H](n4cc(C)c(=O)[nH]c4=O)O[C@@H]3COP(=O)(O)O[C@H]3C[C@H](n4cnc5c(=O)[nH]c(=N)[nH]c54)O[C@@H]3COP(=O)(O)O[C@H]3C[C@H](n4cnc5c(=O)nc(N)[nH]c54)O[C@@H]3COP(=O)(O)O[C@H]3C[C@H](n4cc(C)c(=O)[nH]c4=O)O[C@@H]3COP(=O)(O)O[C@H]3C[C@H](n4cc(C)c(=O)[nH]c4=O)O[C@@H]3COP(=O)(O)O[C@H]3C[C@H](n4cnc5c(=O)nc(N)[nH]c54)O[C@@H]3COP(=O)(O)O[C@H]3C[C@H](n4cnc5c(=O)nc(N)[nH]c54)O[C@@H]3COP(=O)(O)O)O2)c(=O)[nH]c1=O | 1.1
